Conditions: Liquid, Closed cell (Static) method

c1ccccc1 [benzene]
Conditions | vapor or sublimation pressure [kPa]
303.15 K | 15.63
313.15 K | 24.45
323.15 K | 36.6
333.15 K | 53.12
343.15 K | 74.82

c1ccsc1 [thiophene]
Conditions | vapor or sublimation pressure [kPa]
303.15 K | 13.29
308.15 K | 16.61
313.15 K | 20.59
318.15 K | 25.31
323.15 K | 30.87
328.15 K | 37.4
333.15 K | 44.98

Cc1ccccc1 [toluene]
Conditions | vapor or sublimation pressure [kPa]
323.16 K | 12.29
325.16 K | 13.37
327.15 K | 14.53
329.15 K | 15.77
332.15 K | 17.8
334.25 K | 19.35
337.65 K | 22.08
339.65 K | 23.83
342.3 K | 26.32
342.45 K | 26.47

O [water]
Conditions | vapor or sublimation pressure [kPa]
322.13 K | 11.12
329.07 K | 16.75
337.68 K | 24.18
341.81 K | 29.68
347.45 K | 37.91
350.9 K | 43.56
355.11 K | 51.68
358.38 K | 58.49

From the NIST ThermoML archive (doi:10.1021/acs.jced.5b00760)
